This assay deals with soluble epoxide hydrolase (sEH). In words: Fluorescent Assay for Mouse and Human Soluble Epoxide Hydrolase (CMNPC substrate). In kind it is biochemical. The source says:
Fluorescent Assay for Mouse and Human Soluble Epoxide Hydrolase Recombinant mouse sEH (MsEH) and human sEH (HsEH) were produced in a baculovirus expression system as previously reported. Grant et al., J. Biol. Chem., 268:17628-17633 (1993); Beetham et al., Arch. Biochem. Biophys., 305:197-201 (1993). The expressed proteins were purified from cell lysate by affinity chromatography. Wixtrom et al., Anal. Biochem., 169:71-80 (1988). Protein concentration was quantified using the Pierce BCA assay using bovine serum albumin as the calibrating standard. The preparations were at least 97% pure as judged by SDS-PAGE and scanning densitometry. They contained no detectable esterase or glutathione transferase activity which can interfere with the assay. The assay was also evaluated with similar results in crude cell lysates or homogenate of tissues. The IC50s for each inhibitor were according to the following procedure: [drawing 218] […] Jones P. D. et. al.; Analytical Biochemistry 2005; 343: pp. 66-75) Bis/Tris HCl 25 mM pH 7.0 containing 0.1 mg/mL of BSA (buffer […] at 0.25 mM in DMSO. Mother solution of enzyme in buffer A (Mouse sEH at 6 μg/mL and Human sEH at 5 μg/mL). Inhibitor dissolved in DMSO at the appropriate concentration. In a black 96 well plate, fill all the wells with 150 μL of buffer A. Add 2 μL of DMSO in well A2 and A3, and then add 2 μL of inhibitor solution in A1 and A4 through A12. Add 150 μL of buffer A in row A, then mix several time and transfer 150 μL to row B. Repeat this operation up to row H. The 150 μL removed from row H is discarded. Add 20 μL of buffer A in column 1 and 2, then add 20 μL of enzyme solution to column 3 to 12. Incubate the plate for 5 minutes in the plate reader at 30° C. During incubation prepare the working solution of substrate by mixing 3.68 mL of buffer A (4×0.920 mL) with 266 μL (2×133 μL) of substrate solution). At t=0, add 30 μL of working substrate solution with multi-channel pipette labeled “Briggs 303” and start the reading ([S]final: 5 μM). Read with ex: 330 nm (20 nm) and em: 465 nm (20 nm) every 30 second for 10 minutes. The velocities are used to analyze and calculate the IC50s. Tables 4-6 show the activity of compounds when tested with the assay at 50, 500, 5000, 50000, and 500000 nM.

By % Inhibition is commonly meant the relative decrease from the control value, in per cent.

In the case of `O=C(Nc1ccc(OCc2ccccc2)cc1)C(O)CC12CC3CC(CC(C3)C1)C2` (stereo not drawn) [Compound 117, 3-Adamantan-1-yl-N-(4-benzyloxy-phenyl)-2-hydroxy-propionamide], the “% Inhibition” value (Concentration 50000 nM) is listed as 81%.

Regarding `O=C(Nc1ccc(OCc2ccccc2)cc1)C(O)C12CC3CC(CC(C3)C1)C2` (stereo not drawn) [Compound 118, 2-Adamantan-1-yl-N-(4-benzyloxy-phenyl)-2-hydroxy-acetamide], the “% Inhibition” value (Concentration 5000 nM) came out at 95%.

Consider `COc1ccc(C(O)C(=O)NCC23CC4CC(CC(C4)C2)C3)cc1` (stereo not drawn) [Compound 120, N-Adamantan-1-ylmethyl-2-hydroxy-2-(4-methoxy-phenyl)-acetamide], for which, under “Concentration 5000 nM”, the “% Inhibition” value is on record as 79%.

In the case of `O=C(NCC12CC3CC(CC(C3)C1)C2)C(O)c1ccc(C(F)(F)F)cc1` (stereo not drawn) [Compound 121, N-Adamantan-1-ylmethyl-2-hydroxy-2-(4-trifluoromethyl-phenyl)-acetamide], the “% Inhibition” value (Concentration 5000 nM) stood at 91%.

`Cc1ccc(S(=O)(=O)N2CCC(CNC(=O)C(O)CC34CC5CC(CC(C5)C3)C4)CC2)cc1` (stereo not drawn) [Compound 122, 3-Adamantan-1-yl-2-hydroxy-N-[1-(toluene-4-sulfonyl)-piperidin-4-ylmethyl]-propionamide]: the “% Inhibition” value (Concentration 500 nM) is reported as 88%.

Take `O=C(NC1CCN(S(=O)(=O)c2cccc(C(F)(F)F)c2)CC1)C(O)C12CC3CC(CC(C3)C1)C2` (stereo not drawn) [Compound 123, 2-Adamantan-1-yl-2-hydroxy-N-[1-(3-trifluoromethyl-benzenesulfonyl)-piperidin-4-yl]-acetamide]: the “% Inhibition” value (Concentration 5000 nM) came to 98%.

As to `Cc1ccc(S(=O)(=O)N2CCC(NC(=O)C(O)C34CC5CC(CC(C5)C3)C4)CC2)cc1` (stereo not drawn) [Compound 124, 2-Adamantan-1-yl-2-hydroxy-N-[1-(toluene-4-sulfonyl)-piperidin-4-yl]-acetamide], under “Concentration 500 nM”, the “% Inhibition” value came out at 80%.

For the compound `O=C(NCc1ccc(OCc2ccccc2)cc1)C(O)CC12CC3CC(CC(C3)C1)C2` (stereo not drawn) [Compound 125, 3-Adamantan-1-yl-N-(4-benzyloxy-benzyl)-2-hydroxy-propionamide], the “% Inhibition” value (Concentration 5000 nM) turned out to be 98%.

In the case of `O=C(Nc1cccc(OCc2ccccc2)c1)C(O)CC1CCCCC1` (stereo not drawn) [Compound 126, N-(3-Benzyloxy-phenyl)-3-cyclohexyl-2-hydroxy-propionamide], where the note is “Concentration 5000 nM”, the “% Inhibition” value was determined as 78%.

Consider `Cc1ccc(S(=O)(=O)N2CCC(CNC(=O)C(O)C34CC5CC(CC(C5)C3)C4)CC2)cc1` (stereo not drawn) [Compound 127, 2-Adamantan-1-yl-2-hydroxy-N-[1-(toluene-4-sulfonyl)-piperidin-4-ylmethyl]-acetamide], for which, where the note is “Concentration 5000 nM”, the “% Inhibition” value is given as 84%.

On to `Cc1ccc(S(=O)(=O)N2CCC(NC(=O)C(O)CC34CC5CC(CC(C5)C3)C4)CC2)cc1` (stereo not drawn) [Compound 128, 3-Adamantan-1-yl-2-hydroxy-N-[1-(toluene-4-sulfonyl)-piperidin-4-yl]-propionamide], for which the “% Inhibition” value (Concentration 500 nM) worked out at 89%.

On to `O=C(NCCc1ccc(OCc2ccccc2)cc1)C(O)CCC12CC3CC(CC(C3)C1)C2` (stereo not drawn) [Compound 129, 4-Adamantan-1-yl-N-[2-(4-benzyloxy-phenyl)-ethyl]-2-hydroxy-butyramide], for which the “% Inhibition” value (Concentration 50 nM) amounted to 70%.

Regarding `O=C(Nc1ccc(OCc2ccccc2)cc1)C(O)CCc1ccc(C(F)(F)F)cc1` (stereo not drawn) [Compound 130], the “% Inhibition” value (Concentration 5000 nM) was 89%.

For the compound `O=C(Nc1cccc(OCc2ccccc2)c1)C(O)CCc1ccc(C(F)(F)F)cc1` (stereo not drawn) [Compound 131], under “Concentration 5000 nM”, the “% Inhibition” value was found to be 98%.

For the compound `O=C(Nc1ccc(OCc2ccccc2)cc1)C(O)CC1CCCCC1` (stereo not drawn) [Compound 132, N-(4-(Benzyloxy)phenyl)-3-cyclohexyl-2-hydroxypropanamide], for the setting “Concentration 50000 nM”, the “% Inhibition” value is reported as 65%.

Turning to `O=C(NC1CCN(S(=O)(=O)c2cccc(C(F)(F)F)c2)CC1)C(O)CC12CC3CC(CC(C3)C1)C2` (stereo not drawn) [Compound 133, 3-Adamantan-1-yl-2-hydroxy-N-(1-(3-(trifluoromethyl)phenylsulfonyl)piperidin-4-yl)propanamide], the “% Inhibition” value (Concentration 500 nM) came to 83%.

With `O=C(NCc1ccc(OCc2ccccc2)cc1)C(O)C12CC3CC(CC(C3)C1)C2` (stereo not drawn) [Compound 134, N-(4-(Benzyloxy)benzyl)-2-adamantan-1-yl-2-hydroxyacetamide], the “% Inhibition” value (Concentration 5000 nM) was determined as 83%.

For `Cc1ccc(S(=O)(=O)N2CCC(NC(=O)C(O)CC3CCCCC3)CC2)cc1` (stereo not drawn) [Compound 135, 3-Cyclohexyl-2-hydroxy-N-(1-tosylpiperidin-4-yl)propanamide], the “% Inhibition” value (Concentration 5000 nM) was found to be 89%.

With `Cc1ccc(S(=O)(=O)N2CCC(NC(=O)C(O)CCc3ccc(C(F)(F)F)cc3)CC2)cc1` (stereo not drawn) [Compound 136, 2-Hydroxy-N-(1-tosylpiperidin-4-yl)-4-(4-(trifluoromethyl)phenyl)butanamide], the “% Inhibition” value (Concentration 5000 nM) worked out at 83%.

`Cc1ccc(S(=O)(=O)N2CCC(NC(=O)C(O)C3CCCCC3)CC2)cc1` (stereo not drawn) [Compound 137, 2-Cyclohexyl-2-hydroxy-N-(1-tosylpiperidin-4-yl)acetamide]: the “% Inhibition” value (Concentration 5000 nM) was determined as 82%.

On to `Cc1ccc(S(=O)(=O)N2CCC(NC(=O)C(O)CCC34CC5CC(CC(C5)C3)C4)CC2)cc1` (stereo not drawn) [Compound 138, 4-Adamantan-1-yl-2-hydroxy-N-(1-tosylpiperidin-4-yl)butanamide], for which the “% Inhibition” value (Concentration 500 nM) is given as 79%.

As to `O=C(NCCc1ccc(OCc2ccccc2)cc1)C(O)CCc1ccc(C(F)(F)F)cc1` (stereo not drawn) [Compound 139, N-(4-(Benzyloxy)phenethyl)-2-hydroxy-4-(4-(trifluoromethyl)phenyl)butanamide], the “% Inhibition” value (Concentration 5000 nM) is listed as 70%.

In the case of `Cc1ccc(S(=O)(=O)N2CCC(NC(=O)C(O)CCC3CCCCC3)CC2)cc1` (stereo not drawn) [Compound 140, 4-Cyclohexyl-2-hydroxy-N-(1-tosylpiperidin-4-yl)butanamide], the “% Inhibition” value (Concentration 500 nM) stood at 78%.

With `O=C(NCCc1ccc(OCc2ccccc2)cc1)C(O)CCC1CCCCC1` (stereo not drawn) [Compound 141, N-(4-(Benzyloxy)phenethyl)-4-cyclohexyl-2-hydroxybutanamide], where the note is “Concentration 5000 nM”, the “% Inhibition” value was determined as 91%.

On to `Cc1ccc(S(=O)(=O)N2CCC(NC(=O)C(O)Cc3ccc(C(F)(F)F)cc3)CC2)cc1` (stereo not drawn) [Compound 142, 2-Hydroxy-N-(1-tosylpiperidin-4-yl)-3-(4-(trifluoromethyl)phenyl)propanamide], for which, where the note is “Concentration 50000 nM”, the “% Inhibition” value came to 84%.

With `O=C(Nc1ccc(OCc2ccccc2)cc1)C(O)CCC12CC3CC(CC(C3)C1)C2` (stereo not drawn) [Compound 143, N-(4-(Benzyloxy)phenyl)-4-adamantan-1-yl-2-hydroxybutanamide], the “% Inhibition” value (Concentration 5000 nM) is 99%.

Take `O=C(NCCc1ccc(OCc2ccccc2)cc1)C(O)Cc1ccc(C(F)(F)F)cc1` (stereo not drawn) [Compound 144, N-(4-(Benzyloxy)phenethyl)-2-hydroxy-3-(4-(trifluoromethyl)phenyl)propanamide]: the “% Inhibition” value (Concentration 50000 nM) was determined as 66%.

Consider `O=C(NCCc1ccc(F)cc1)C(O)CCC12CC3CC(CC(C3)C1)C2` (stereo not drawn) [Compound 145, 4-Adamantan-1-yl-N-(4-fluorophenethyl)-2-hydroxybutanamide], for which the “% Inhibition” value (Concentration 5000 nM) is on record as 95%.

`O=C(NCc1ccc(OCc2ccccc2)cc1)C(O)CCC12CC3CC(CC(C3)C1)C2` (stereo not drawn) [Compound 146, N-(4-(Benzyloxy)benzyl)-4-adamantyl-2-hydroxybutanamide]: the “% Inhibition” value (Concentration 5000 nM) was 73%.

In the case of `O=C(NCCc1ccc(OCc2ccccc2)cc1)C(O)CC12CC3CC(CC(C3)C1)C2` (stereo not drawn) [Compound 147, N-(4-(Benzyloxy)phenethyl)-3-adamantan-1-yl-2-hydroxypropanamide], the “% Inhibition” value (Concentration 5000 nM) is listed as 93%.

The record behind these values is patent US20080200467A1, “SOLUBLE EPOXIDE HYDROLASE INHIBITORS” (Arete Therapeutics, Inc., priority 2006, published 2008).
